From patent publication US20090143279A1 (priority 2007, published 2009)
Read-outs that look alike come from different tables or passages of the source.

Assays:
mtOXPHOS transcripts = format: cell-based, mouse
reactive oxygen species = format: cell-based, mouse
OXPHOS gene expression = format: cell-based, mouse
cytochrome c = format: cell-based, mouse
[1] = system: cellular dehydrogenase activity
[2] = system: mitochondrial membrane potential; format: cell-based, mouse
nuOXPHOS transcripts = format: cell-based, mouse
[3] = 20 μM, composite Z-score vs DMSO
[4] = composite Z-score vs DMSO wells, Conc 20 μM
[5] = composite Z-score vs DMSO, Conc 20 μM
[6] = Conc 20 μM, normalized score vs mock-treated (DMSO) wells
[7] = composite Z-score vs mock-treated (DMSO) wells, Conc 20 μM
[8] = normalized composite Z-score vs mock-treated (DMSO) wells, Conc 20 μM

CCOC(=O)CCC(=O)O[C@H]1[C@H](O[C@@H]2[C@@H](C)[C@H](O[C@H]3C[C@@](C)(OC)[C@@H](O)[C@H](C)O3)[C@@H](C)C(=O)O[C@H](CC)[C@@](C)(O)[C@H](O)[C@@H](C)C(=O)[C@H](C)C[C@@]2(C)O)O[C@H](C)C[C@@H]1N(C)C [erythromycin ethylsuccinate] gave a mitoOX (mtOXPHOS transcripts; [3]) of −0.163, an ROS (reactive oxygen species; [3]) of 0.555 and a GE-HTS (OXPHOS gene expression; [3]) of −0.390. For the same compound, the cyt c (cytochrome c; [3]) was 0.220, the MTT [1, 3] was −1.100 and the ΔΨm [2, 3] was −0.488. For the same compound, the Viability (C2C12 myotubes; [3]) was −0.945 and the nucOX (nuOXPHOS transcripts; [3]) was −0.433.
C[C@]12CC[C@@H]3c4ccc(O)cc4CC[C@H]3[C@@H]1CC[C@@H]2OC(=O)CCC1CCCC1 [estradiol cypionate] gave a mitoOX (mtOXPHOS transcripts; [4]) of −0.418, an ROS (reactive oxygen species; [4]) of −0.010 and a GE-HTS (OXPHOS gene expression; [4]) of −0.124. It also gave a cyt c (cytochrome c; [4]) of 0.408, an MTT [1, 4] of −2.428 and a ΔΨm [2, 4] of −0.489. It also gave a Viability (C2C12 myotubes; [4]) of 0.219 and a nucOX (nuOXPHOS transcripts; [4]) of 0.072.
Work on COc1ccc2c(c1)CC[C@@H]1[C@@H]2CC[C@]2(C)[C@@H](O)CC[C@@H]12 [estradiol methyl ether] yielded a mitoOX (mtOXPHOS transcripts; [5]) of −0.209, an ROS (reactive oxygen species; [5]) of 0.411 and a GE-HTS (OXPHOS gene expression; [5]) of 0.099. For the same compound, the cyt c (cytochrome c; [5]) was 1.670, the MTT [1, 5] was −0.685 and the ΔΨm [2, 5] was −0.007. It also gave a Viability (C2C12 myotubes; [5]) of 0.510 and a nucOX (nuOXPHOS transcripts; [5]) of 0.214.
With C[C@]12CC[C@@H]3c4ccc(O)cc4CC[C@H]3[C@@H]1CC[C@@H]2O [estradiol] the mitoOX (mtOXPHOS transcripts; [5]) was −0.058, the ROS (reactive oxygen species; [5]) was 0.310 and the GE-HTS (OXPHOS gene expression; [5]) was 0.290. It also gave a cyt c (cytochrome c; [5]) of 0.389, an MTT [1, 5] of −1.040 and a ΔΨm [2, 5] of −0.085. For the same compound, the Viability (C2C12 myotubes; [5]) was 0.400 and the nucOX (nuOXPHOS transcripts; [5]) was 0.410.
C[C@]12CCC3c4ccc(OC(=O)c5ccccc5)cc4CCC3C1CCC2=O (some centres unmarked) [estrone benzoate] showed a mitoOX (mtOXPHOS transcripts; [5]) of −0.179, an ROS (reactive oxygen species; [5]) of 0.210 and a GE-HTS (OXPHOS gene expression; [5]) of 0.061. The cyt c (cytochrome c; [5]) was 0.406, the MTT [1, 5] was −0.807 and the ΔΨm [2, 5] was −0.277. For the same compound, the Viability (C2C12 myotubes; [5]) was 0.154 and the nucOX (nuOXPHOS transcripts; [5]) was 0.190.
In the case of CCC(N)C(O)c1ccc(O)c(O)c1 (centres unmarked) [ethylnorepinephrine], the “mitoOX (composite Z-score)” value (mtOXPHOS transcripts; [6]) is reported as −0.921, the “ROS (composite Z-score)” value (reactive oxygen species; [6]) is reported as −0.396 and the “GE-HTS (composite Z-score)” value (OXPHOS gene expression; [6]) is reported as −0.475. For the same compound, the “cyt c (composite Z-score)” value (cytochrome c; [6]) was −0.439, the “MTT (composite Z-score)” value [1, 6] was −1.017 and the “ΔΨm (composite Z-score)” value [2, 6] was −2.053. The “Viability (composite Z-score)” value (C2C12 myotubes; [6]) was −0.508 and the “nucOX (composite Z-score)” value (nuOXPHOS transcripts; [6]) was −0.195.
Compound COc1cc([C@@H]2c3cc4c(cc3[C@@H](O[C@@H]3O[C@@H]5CO[C@@H](C)O[C@H]5[C@H](O)[C@H]3O)[C@H]3COC(=O)[C@H]23)OCO4)cc(OC)c1O [etoposide] has a mitoOX (mtOXPHOS transcripts; [5]) of 1.373, an ROS (reactive oxygen species; [5]) of −1.736 and a GE-HTS (OXPHOS gene expression; [5]) of 0.725. The cyt c (cytochrome c; [5]) was −0.491, the MTT [1, 5] was −2.352 and the ΔΨm [2, 5] was 0.050. It also gave a Viability (C2C12 myotubes; [5]) of −1.541 and a nucOX (nuOXPHOS transcripts; [5]) of 0.355.
Work on Cc1cc(=O)c2c(O)c(C)c(O)cc2o1 [eugenitol] yielded a mitoOX (mtOXPHOS transcripts; [7]) of 0.962, an ROS (reactive oxygen species; [7]) of 1.256 and a GE-HTS (OXPHOS gene expression; [7]) of 0.471. The cyt c (cytochrome c; [7]) was −0.041, the MTT [1, 7] was −1.139 and the ΔΨm [2, 7] was −0.541. For the same compound, the Viability (C2C12 myotubes; [7]) was −0.575 and the nucOX (nuOXPHOS transcripts; [7]) was 0.168.
Work on C=CCc1ccc(O)c(OC)c1 [eugenol] yielded a mitoOX (mtOXPHOS transcripts; [3]) of −0.320, an ROS (reactive oxygen species; [3]) of 1.068 and a GE-HTS (OXPHOS gene expression; [3]) of −0.254. It also gave a cyt c (cytochrome c; [3]) of 0.307, an MTT [1, 3] of −0.243 and a ΔΨm [2, 3] of −0.816. The Viability (C2C12 myotubes; [3]) was −0.943 and the nucOX (nuOXPHOS transcripts; [3]) was −0.166.
Compound C=C(C)c1cc2cc(C(C)=O)c(O)cc2o1 [euparin] has a mitoOX (mtOXPHOS transcripts; [7]) of 0.484, an ROS (reactive oxygen species; [7]) of 0.795 and a GE-HTS (OXPHOS gene expression; [7]) of 1.120. The cyt c (cytochrome c; [7]) was 0.419, the MTT [1, 7] was −0.912 and the ΔΨm [2, 7] was −0.010. It also gave a Viability (C2C12 myotubes; [7]) of 0.021 and a nucOX (nuOXPHOS transcripts; [7]) of 1.293.
Work on COc1cc(C)c(C(=O)O)c(O)c1 [everninic acid] yielded a mitoOX (mtOXPHOS transcripts; [8]) of 1.116, an ROS (reactive oxygen species; [8]) of 0.423 and a GE-HTS (OXPHOS gene expression; [8]) of 1.491. For the same compound, the cyt c (cytochrome c; [8]) was 0.115, the MTT [1, 8] was −1.123 and the ΔΨm [2, 8] was −0.942. The Viability (C2C12 myotubes; [8]) was −0.592 and the nucOX (nuOXPHOS transcripts; [8]) was 1.517.
With CC(C)=CCC/C(C)=C/CC/C(C)=C/CO [farnesol] the mitoOX (mtOXPHOS transcripts; [5]) was −0.401, the ROS (reactive oxygen species; [5]) was 0.550 and the GE-HTS (OXPHOS gene expression; [5]) was −0.066. It also gave a cyt c (cytochrome c; [5]) of −0.437, an MTT [1, 5] of −1.554 and a ΔΨm [2, 5] of −0.153. For the same compound, the Viability (C2C12 myotubes; [5]) was −1.327 and the nucOX (nuOXPHOS transcripts; [5]) was 0.106.
In the case of CC(C)(OC(=O)c1ccccc1)[C@@H]1Cc2cc3ccc(=O)oc3cc2O1 [felamidin], the mitoOX (mtOXPHOS transcripts; [5]) is reported as 1.050, the ROS (reactive oxygen species; [5]) is reported as 0.710 and the GE-HTS (OXPHOS gene expression; [5]) is reported as 0.966. It also gave a cyt c (cytochrome c; [5]) of 0.921, an MTT [1, 5] of −0.475 and a ΔΨm [2, 5] of 0.600. For the same compound, the Viability (C2C12 myotubes; [5]) was 0.224 and the nucOX (nuOXPHOS transcripts; [5]) was 0.835.
